# From ChEMBL document CHEMBL1149326, “Inhibitors of farnesyltransferase: a rational approach to cancer chemotherapy?” (J Med Chem, 2004)
# What was measured:
# Rat1 = assay: Inhibition of H-ras-transformed Rat1 cells; format: functional, cell-based; details: Rattus norvegicus
# [1] = biological target: T1, Geranylgeranyl transferase type I (Homo sapiens, UniProt P49354+P53609); assay: Inhibition binding constant Geranylgeranyl transferase type I; format: protein-complex assay
# [2] = biological target: T2, Protein farnesyltransferase (Homo sapiens, UniProt P49354+P49356); assay: Inhibitory concentration against farnesyltransferase was determined; format: protein-complex assay
# [3] = biological target: T1, Geranylgeranyl transferase type I; assay: Inhibition binding constant against Geranylgeranyl transferase type I; format: protein-complex assay
# NIH3T3 = assay: Inhibition of growth of H-ras-transformed 3T3 fibroblasts
# [4] = biological target: T2, Protein farnesyltransferase; assay: Inhibition binding constant against Farnesyltransferase; format: protein-complex assay
# [5] = biological target: T2, Protein farnesyltransferase; assay: Effective concentration required to inhibit HDJ2 farnesylation in PSN-1 cells; format: functional, cell-based
structure (smiles),measurement,setting,value
CC[C@@H](C)[C@@H](CN(CC(=O)N[C@@H](CCSC)C(=O)OC)Cc1cccc2ccccc12)NC(=O)Cc1cncn1Cc1ccc(C#N)cc1,IC50,Rat1,630 nM
COC(=O)[C@H](CC(C)C)NC(=O)c1ccc(NC[C@@H](N)CS)cc1-c1cccc2ccccc12,IC50,[1],54 nM
N#Cc1ccc2cc1Oc1ccc3cccc(c3c1)N1CCN(CC1=O)Cc1cncn1C2,IC50,[2],0.2 nM
CC(=O)N1CCC(=C2c3ccc(Cl)cc3CCc3cccnc32)CC1 [SCH-37370],IC50,[2],27000 nM
O=C(c1ccccc1OC(F)(F)F)N1CCN(Cc2cnc[nH]2)c2ccc(-c3ccncc3)cc2C1,IC50,[2],24 nM
CSCC[C@H](NC(=O)c1cc(NC[C@@H]2C[C@H](SC(=O)c3cccnc3)CN2)ccc1CCc1ccc(F)cc1)C(=O)OC(C)C,Ki,[3],8 nM
same,IC50,NIH3T3,49 nM
same,Ki,[4],< 1 nM
CC[C@@H](C)[C@@H](CO[C@@H](Cc1ccccc1)C(=O)N[C@@H](CCS(C)(=O)=O)C(=O)O)NC[C@@H](N)S,IC50,[2],1.8 nM
N#Cc1ccc2cc1Oc1ccc3c(c1)[C@@H](CCC3)N1CC[C@@H](NCc3cncn3C2)C1=O,EC50,[5],0.18 nM
same,IC50,[2],< 1 nM
